According to patent US11779602B2, “Methods of use for CAR T cells” (ENDOCYTE, INC., priority 2018, dated 2023):

Experiments:
[1] = test system: MDA-MB-231 tumors; test: Dietary folate effect on antitumor activity and CRS, MDA-MB-231 tumors in NSG mice; format: in vivo
Experimental: To study the effect of high dietary folate (FIGS. 63A-K), two sets of NSG mice were placed on either a FA-replete diet (4 mg/kg, Envigo, Indianapolis, Ind.) or a FA-deficient diet (TestDiet, St. Louis, Mo.) upon arrival. On day 0, both sets of the mice received ˜10 million of the same “clinical facsimile” CAR-T cells followed by no EC17 or EC17 SIW at 500 nmol/kg starting on day 3. On the first day of EC17 administration, MDA-MB-231 tumors size averaged around ˜549±184 mm^3 (280-918 mm^3) in FA-replete mice, and ˜559±165 mm^3 (356-961 mm^3) in FA-deficient mice.
Previously, it was shown that administration of FA or a FA ligand helped reduce the severity of CRS in MDA-MB-231 tumor-bearing mice. To test the long-term effect of dietary folate, mice were maintained on defined diets for ˜73 days and used when their tumors reached ˜549±184 mm^3 (280-918 mm^3) in FA-replete mice, and ˜559±165 mm^3 (356-961 mm^3) in FA-deficient mice (FIGS. 63A-K).
Since we started MDA-MB-231 tumors at larger sizes than previous studies, tumor regression due to alloreactivity at this 10-million “clinical facsimile” CAR-T cell dose was not apparent (FIGS. 63A and 63C).
Using anti-human EGFR (clone Hu1) to identify MDA-MB-231 cancer cells within mouse tumor masses after an enzymatic digestion, we analyzed FRα protein expression (clone LK26) in three tumors recovered from mice on FA-replete diet that experienced a relapse despite continuing EC17 treatment. By flow cytometric detection, EGFR+ cancer cells isolated from the smallest tumor (21 mg) expressed FRα, while EGFR+ cancer cells isolated from the two larger tumors (90 mg and 363 mg) had completely lost their FRα expression (FIGS. 63I-K). Using the quantitative radioligand binding assay with ^3H-FA, the loss of functional FR levels on tissue homogenates obtained from these tumors was confirmed (˜2.1 pmol/mg binding potential versus ˜103 pmol/mg in tumors from untreated animals). Therefore, FA-deficiency may lead to enhanced activity and CRS toxicity; while non-physiological FA intake prevents CRS and continuous consumption may lead to reduced activity.

[2] = test system: FR+ (KB, MDA-MB-231, HOS-FRα^fLuc, THP1-FRβ) tumor cell lines; test: CAR-T cell exhaustion markers and target cell apoptosis in co-culture with EC17-preloaded targets; format: cell-based, human; settings: EC17 pre-loading 0.1 or 10 nM, E/T 1:2, day 2
Experimental: To study CAR-T cell activation in the presence of FR+ tumor cell targets (FIGS. 53A-D), co-culture experiments were initially carried out with MDA-MB-231, THP1-FRβ and HOS-FRα. […] After 24 hours of co-culture, the surface expression of T cell activation markers CD69, CD137 (4-1BB), and PD1 were analyzed by flow cytometry. For T cell exhaustion studies (FIGS. 54A-C), FR+ (KB, MDA-MB-231, HOS-FRα^fLuc, THP1-FRβ) and FR-negative (HOS-143b^fLuc, THP1-FG12) tumor cell lines were used as targets. Here, target cells were incubated on day 0 without or with 0.1 and 10 nM of EC17 for 30 min at 37° C. and the status of EC17 “pre-loading” was assessed by counterstaining cell-surface EC17 with an anti-FITC antibody (FIG. 61A). Three days later, the surface expression of PD1, LAG3, and TIM3 inhibitor receptors on co-cultured CAR-T cells were analyzed and higher frequencies of double- and triple-positive cells were considered approaching an exhausted phenotype.
To examine antigen-dependent CAR-T cell activation, MDA-MB-231, THP1-FRβ and HOS-FRα cells were preloaded with 100 nM EC17 over 30 min. […] After 24 hours of co-culture, we measured the surface expression of T cell activation markers CD69, CD137 (4-1BB) and PD1 (FIGS. 53A-D). […] Three days later, co-cultured CAR-T cells were measured for upregulation and co-expression of T cell activation/exhaustion markers PD1, LAGS and TIM3. […]

NC1=NC2N=CC(CNc3ccc(C(=O)N[C@@H](CCC(=O)NCCNC(=S)Nc4ccc(-c5c6ccc(=O)cc-6oc6cc(O)ccc56)c(C(=O)O)c4)C(=O)O)cc3)=NC2C(=O)N1 (some centres unmarked) [EC17, FA-(γ)-ethylenediamine-FITC]
CD3ε+EGFRt+ CAR-T cells in blood ([1]; FA-deficient diet, day 52): 1.6-20.4×10^4 per 100 μL blood
CRS grade ([1]; FA-deficient diet, subsequent EC17 doses): 2-3 grade
CD3ε+EGFRt+ CAR-T cells in blood ([1]; FA-replete diet, day 59): 0.027-4.3×10^3 per 100 μL blood
CRS ([1]; FA-replete diet, ~10 million CAR-T cells, EC17 500 nmol/kg weekly): did not show symptoms of CRS
target cell apoptosis (Annexin V+) [2]: dose-dependent apoptosis (Annexin V+) was seen in all FR+ tumor cell lines
